Test results reported in patent US20210261570A1, “ANTIBIOTIC RESISTANCE BREAKERS” (KING'S COLLEGE LONDON, priority 2017, published 2021).
In brackets after ≈: the same amount, converted by molar mass. Several values for one entry are separate records, joined by “and”; a condition that tells them apart may be missing. Equal values may be shown once. Read-outs that look alike come from different tables or passages of the source.

How the values were obtained:
[1] = test system: Staphylococcus aureus ATCC29213; experiment: Murine model of thigh infection (neutropenic ICR mice); conditions: for decrease of thigh bacterial burden compared to vehicle group: 8 h and 14 h post infection
Text: 40 Male mice used in these study were supplied by Charles River UK and were specific pathogen free. The strain of mouse used was Hsd:ICR (CD-1®), which is a well characterized outbred strain. Mice were 11-15 g on receipt at Evotec's facility and were allowed to acclimatize for minimum of 7 days prior to infection. Mice were approximately 28 g at the start of the study. Mice were housed in sterile individual ventilated cages exposing animals at all times to HEPA filtered sterile air. Mice had free access to food and water (sterile) and had sterile aspen chip bedding. The room temperature was 22° C.±1° C., with a relative humidity of 50-60% and maximum background noise of 56 dB. Mice were exposed to 12 hour light/dark cycles with dawn/dusk phases.
All mice were rendered neutropenic by immunosuppression with cyclophosphamide at 150 mg/kg 4 days before infection and then 100 mg/kg 1 day before infection administered by intraperitoneal injection. The immunosuppression regime leads to neutropenia starting 24 hours post administration of the first injection, which continues throughout the study. Mice were infected approximately 24 hours after the second dose of immunosuppressive agent.
Staphylococcus aureus ATCC29213 was used for the study.
Whilst still under anaesthesia mice were administered a single dose of buprenorphine (0.03 mg/kg) subcutaneously for pain relief.
Test articles and comparator were prepared in stock solutions at 10× concentration as described in Table 20. The stock solutions were prepared in aliquots (1 aliquot per time of dosing) and frozen at −20° C. The solutions were thawed and then diluted in water just before dosing to obtain the appropriate concentration of 5 mg/mL or 2 mg/mL for oral administration at 10 mL/kg of the dose of 50 mg/kg or 20 mg/kg respectively (Table 20). 10% DMSO in water was used as the vehicle
After sacrifice of animal, both posterior thighs were removed, weighed, then homogenised in 2 mL PBS using a Precellys bead beater and the homogenates individually quantitatively cultured on CLED agar to determine the bacterial burdens.
The data from the culture burdens were analysed using appropriate non-parametric statistical models (Kruskal-Wallis using Conover-Inman to make all pairwise comparisons between groups) with StatsDirect software v. 2.7.8., and compared to pre-treatment and vehicle controls.

Safetyscreen44 panel [2] = target: Safetyscreen44 panel (Homo sapiens, UniProt P21728); conditions: D1 (h) (antagonist radioligand)
Safetyscreen44 panel (Homo sapiens, UniProt P21728), sequence (P21728 whole entry): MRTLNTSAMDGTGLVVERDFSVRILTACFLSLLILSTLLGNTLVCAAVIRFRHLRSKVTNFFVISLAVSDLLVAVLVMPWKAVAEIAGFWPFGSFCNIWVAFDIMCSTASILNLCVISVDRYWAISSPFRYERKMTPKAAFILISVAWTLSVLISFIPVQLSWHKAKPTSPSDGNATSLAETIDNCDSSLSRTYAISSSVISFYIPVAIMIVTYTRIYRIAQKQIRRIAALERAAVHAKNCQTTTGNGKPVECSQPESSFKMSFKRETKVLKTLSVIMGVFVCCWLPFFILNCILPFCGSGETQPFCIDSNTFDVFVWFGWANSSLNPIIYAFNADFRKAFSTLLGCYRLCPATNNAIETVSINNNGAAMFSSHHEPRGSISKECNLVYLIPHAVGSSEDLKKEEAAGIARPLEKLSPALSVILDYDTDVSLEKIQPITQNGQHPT

Safetyscreen44 panel [3] = test system: Safetyscreen44 panel
[4] = test system: Neisseria gonorrhoeae strains; assay type: cell-based
Text: Untreated controls and blank wells were included.

`C[C@H]1COc2c(N3CC[C@@H](Nc4ncccn4)C3)c(F)cc3c(=O)c(C(=O)O)cn1c23` [KSN-82-L22] was tested, and the “Bodyweight raw data, individual mouse” value ([1]; 20 mg/kg group, day 0 (day of infection)) was 29.4 and 27.2 and 30.5 and 29.7, the “Bodyweight raw data, individual mouse” value ([1]; 20 mg/kg group, day 1 post infection) was 29.3 and 29.5 and 27.5 and 31.3 and 31.0 and the “Bodyweight raw data, individual mouse” value ([1]; 20 mg/kg group, day −1 post infection (before treatment)) was 29.1 and 29.2 and 27.3 and 30.2 and 29.8. The “Bodyweight raw data, individual mouse” value ([1]; 20 mg/kg group, day −4 post infection (before treatment)) was 28.7 and 30.2 and 26.9 and 29.8 and 29.7, the “decrease of thigh bacterial burden compared to vehicle group” value ([1]; 20 mg/kg/dose oral at 2 h, 18 h post infection) was 5 log10 CFU/g and > 5 log10 CFU/g and the “Bodyweight raw data, individual mouse” value ([1]; 50 mg/kg group, day 0 (day of infection)) was 28.2 and 27.8 and 29.3 and 26.6 and 25.6. For the same molecule, the “Bodyweight raw data, individual mouse” value ([1]; 50 mg/kg group, day 1 post infection) was 29 and 28.1 and 30.1 and 26.1 and 26.4, the “Bodyweight raw data, individual mouse” value ([1]; 50 mg/kg group, day −1 post infection (before treatment)) was 27.9 and 29.5 and 29.1 and 26.5 and 26.8 and the “Bodyweight raw data, individual mouse” value ([1]; 50 mg/kg group, day −4 post infection (before treatment)) was 27.8 and 29.2 and 28.9 and 27.0 and 27.9. For the same molecule, the “decrease of thigh bacterial burden compared to vehicle group” value ([1]; 50 mg/kg/dose oral at 2 h, 18 h post infection) was > 5 log10 CFU/g, the “thigh bacterial burden, result in words” value ([1]; 20 and 50 mg/kg, 18 h post infection) was “significantly decreased bacterial burden” and the “body weights following infection” value ([1]; infected neutropenic mice, treated groups) was “slightly increased”. For the same molecule, the “Statistic analysis of thigh burden, P versus ML-83-009 20 mg/kg” value ([1]; substance at 20 mg/kg) was “P < 0.0001”, the “Statistic analysis of thigh burden, P versus ML-83-009 50 mg/kg” value ([1]; substance at 20 mg/kg) was “P = 0.0002” and the “Statistic analysis of thigh burden, P versus Pre treatment” value ([1]; substance at 20 mg/kg) was “P = 0.0139”. The “Statistic analysis of thigh burden, P versus Vehicle” value ([1]; substance at 20 mg/kg) was “P < 0.0001”, the “Statistic analysis of thigh burden, P versus ML-83-009 20 mg/kg” value ([1]; substance at 50 mg/kg) was “P < 0.0001” and the “Statistic analysis of thigh burden, P versus ML-83-009 50 mg/kg” value ([1]; substance at 50 mg/kg) was “P < 0.0001”. For the same molecule, the “Statistic analysis of thigh burden, P versus Pre treatment” value ([1]; substance at 50 mg/kg) was “P = 0.0026”, the “Statistic analysis of thigh burden, P versus Vehicle” value ([1]; substance at 50 mg/kg) was “P < 0.0001” and the “% inhibition” value (Safetyscreen44 panel [2]) was −15.4033%. For the same molecule, the “% inhibition” value (Safetyscreen44 panel [3]; KV channel (antagonist radioligand)) was −4.644%, the “% inhibition” value (Safetyscreen44 panel [3]; alpha 2A (h) (antagonist radioligand)) was 4.4791% and the MIC ([4]; strain 2007NG046, resistance PEN-R CFM-R CPD-R CIP-R) was 4 µg/mL (≈ 9.4 µM). It also gave an MIC ([4]; strain 2008NG057, resistance PEN-R CFM-R CPD-R CIP-R) of 2 µg/mL (≈ 4.7 µM), an MIC ([4]; strain 2008NG097, resistance PEN-R CFM-R CPD-R CIP-R) of 2 µg/mL (≈ 4.7 µM) and an MIC ([4]; strain 2009NG514, resistance PEN-R CPD-R CIP-R) of 2 µg/mL (≈ 4.7 µM). For the same molecule, the MIC ([4]; strain 2010NG122, resistance PEN-R CFM-R CIP-R) was 2 µg/mL (≈ 4.7 µM), the MIC ([4]; strain ATCC 49226, resistance PEN-I TET-I) was ≤0.03125 µg/mL and the MIC ([4]; strain ATCC 700825, resistance —) was ≤0.03125 µg/mL. For the same molecule, the MIC ([4]; strain BAA-1833, resistance PEN-I TET-I) was ≤0.03125 µg/mL, the MIC ([4]; strain BAA-1838, resistance —) was ≤0.03125 µg/mL and the MIC ([4]; strain CCUG 57595, resistance —) was ≤0.03125 µg/mL. The MIC ([4]; strain CCUG 57596, resistance CIP-I PEN-I TET-R) was 0.125 µg/mL (≈ 0.294 µM), the MIC ([4]; strain CCUG 57597, resistance FEP-NS FOX-I CAZ-NS CIP-R OFX-R PEN-R TET-R) was 2 µg/mL (≈ 4.7 µM) and the MIC ([4]; strain CCUG 57598, resistance FOX-R CAZ-NS CRO-NS CIP-R OFX-R PEN-R TET-R) was 2 µg/mL (≈ 4.7 µM). The MIC ([4]; strain CCUG 57599, resistance CIP-R OFX-R PEN-R TET-R) was 0.5 µg/mL (≈ 1.18 µM), the MIC ([4]; strain CCUG 57600, resistance CIP-R OFX-R PEN-R TET-R) was 1 µg/mL (≈ 2.35 µM) and the MIC ([4]; strain CCUG 57601, resistance PEN-R TET-R) was ≤0.03125 µg/mL. The MIC ([4]; strain CCUG 57602, resistance PEN-I TET-I) was 0.0625 µg/mL (≈ 0.147 µM), the MIC ([4]; strain FDA-CDC AR-BANK#0165, resistance CIP-R PEN-I TET-R) was 2 µg/mL (≈ 4.7 µM) and the MIC ([4]; strain FDA-CDC AR-BANK#0166, resistance CIP-R PEN-I TET-R) was 2 µg/mL (≈ 4.7 µM). For the same molecule, the MIC ([4]; strain FDA-CDC AR-BANK#0167, resistance CIP-S PEN-S TET-I) was ≤0.03125 µg/mL, the MIC ([4]; strain FDA-CDC AR-BANK#0168, resistance CIP-R PEN-I TET-R) was 1 µg/mL (≈ 2.35 µM) and the MIC ([4]; strain FDA-CDC AR-BANK#0169, resistance CIP-R PEN-I TET-R) was 2 µg/mL (≈ 4.7 µM). For the same molecule, the MIC ([4]; strain FDA-CDC AR-BANK#0170, resistance CIP-R PEN-I TET-R) was 2 µg/mL (≈ 4.7 µM), the MIC ([4]; strain FDA-CDC AR-BANK#0171, resistance CIP-R PEN-I TET-R) was 1 µg/mL (≈ 2.35 µM) and the MIC ([4]; strain FDA-CDC AR-BANK#0172, resistance CIP-R PEN-R TET-R) was 1 µg/mL (≈ 2.35 µM).
